# Paper PMC2854178 (Biochemistry, 2010)
# Target: AFUA_6g12080 (Orf12080) module 1 C*AT (Aspergillus fumigatus, UniProt Q4WLW5)
# Type: biochemical
# Conditions: ATP, 10 mM MgCl2, pH 7.4, 25 °C, 5 μM enzyme (apo); off-pathway acyl-AMP release
# AFUA_6g12080 (Orf12080) module 1 C*AT, sequence (Q4WLW5 1-885): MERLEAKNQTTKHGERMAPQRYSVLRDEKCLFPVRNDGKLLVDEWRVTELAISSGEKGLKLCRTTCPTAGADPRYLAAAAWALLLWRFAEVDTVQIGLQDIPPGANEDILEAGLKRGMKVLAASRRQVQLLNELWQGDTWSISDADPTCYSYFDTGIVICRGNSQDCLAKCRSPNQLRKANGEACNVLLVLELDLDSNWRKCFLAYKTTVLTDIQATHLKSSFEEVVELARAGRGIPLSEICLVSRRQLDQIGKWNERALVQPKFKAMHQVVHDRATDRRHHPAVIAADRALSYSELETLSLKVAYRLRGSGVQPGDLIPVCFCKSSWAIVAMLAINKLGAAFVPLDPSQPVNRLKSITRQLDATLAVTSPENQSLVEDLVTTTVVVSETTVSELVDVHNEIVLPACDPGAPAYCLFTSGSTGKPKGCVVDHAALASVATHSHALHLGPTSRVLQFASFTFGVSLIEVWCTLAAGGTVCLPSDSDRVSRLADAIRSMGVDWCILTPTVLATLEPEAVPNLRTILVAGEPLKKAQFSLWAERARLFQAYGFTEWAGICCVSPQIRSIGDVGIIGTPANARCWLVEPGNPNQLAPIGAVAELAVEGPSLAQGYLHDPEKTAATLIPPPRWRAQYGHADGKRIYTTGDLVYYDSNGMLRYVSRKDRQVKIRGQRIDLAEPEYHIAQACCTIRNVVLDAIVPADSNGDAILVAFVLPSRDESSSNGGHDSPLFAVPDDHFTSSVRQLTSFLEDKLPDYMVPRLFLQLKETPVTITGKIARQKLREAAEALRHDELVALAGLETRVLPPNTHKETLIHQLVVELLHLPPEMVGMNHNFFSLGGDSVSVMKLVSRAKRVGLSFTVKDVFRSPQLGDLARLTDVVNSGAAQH
smiles,measurement,value
"Nc1ccccc1C(=O)O [anthranilic acid, 2-aminobenzoic acid]",Km,18 µM
